The text below walks through data of patent US20220175781A1, “CD40L COMPOSITIONS AND METHODS FOR TUNABLE REGULATION” (Obsidian Therapeutics, Inc., priority 2019, published 2022).

Read-outs that look alike come from different tables or passages of the source.

The test system of test [1] is Jurkat cells. The settings on record: Jurkat cells expressing OT-001662; for Off kinetics (CD40L surface expression, FACS): induced with TMP 50 μM. As for the experimental part: Kinetics were tested using stably transduced Jurkat cells expressing OT-001662. To study the kinetics of turning on the expression of CD40L, cells were treated with TMP (5 or 50 μM) and fixed for FACS after: 0, 3, 6, 9, 24, 48 hours. At the end of the experiment all fixed were stained and analyzed via FACS in parallel. To study the kinetics of turning off expression, expression was first induced in Jurkat cells with 50 μM TMP. The cells were then washed to remove TMP and fixed after 0, 3, 6, 9, 24 hours, stained and analyzed via FACS in parallel.

A further test relates to T cells (CD4 and CD8). The test can be described thus: Cleavage resistant CD40L expression and TMP regulation in T cells. The format is cell-based. As for the experimental part:
T cells were transduced with OT-001668 and on day 4, the percentage of CD40L expressing T cells (within the both CD4 and CD8) subpopulations was calculated.
T cells were transduced with ecDHFR regulated construct OT-001671 that include a CD40L protein that was resistant to cleavage. On day 4 cells were treated with 10 μM TMP for 24 hours. […] In an independent experiment, T cells transduced with varying volumes of virus corresponding to OT-001671 were treated with increasing doses of TMP for 24 hours. In Table 41, 0.5 μL, 2 μL, and 10 μL indicate the different volumes of virus that were used.

The subject of test [2] is Jurkat cells. The test can be described thus: Linker length, ER regulated CD40L, % CD40L positive Jurkat cells. The test is classed as cell-based. As for the experimental part: Jurkat cells were lentivirally transduced and 24 hours after transduction were treated with DMSO or 1 μM Bazedoxifene for another 24 hours and analyzed by flow cytometry for surface expression of CD40L. […] In Table 33, SR indicates stabilization ratio.

For `COc1cc(Cc2cnc(N)nc2N)cc(OC)c1OC` [TMP], the “On kinetics (CD40L surface expression, FACS)” value in the test with Jurkat cells [1] (TMP 5 μM, 0 hours) came to 743; with Jurkat cells [1] (TMP 5 μM, 3 hours), 886; in the test with Jurkat cells [1] (TMP 5 μM, 6 hours), 1096; with Jurkat cells [1] (TMP 5 μM, 9 hours), 1392; in the test on Jurkat cells [1] (TMP 5 μM, 24 hours), 2435; in the test on Jurkat cells [1] (TMP 50 μM, 0 hours) it was 743. For the same molecule, the “On kinetics (CD40L surface expression, FACS)” value in the test with Jurkat cells [1] (TMP 50 μM, 3 hours) stood at 890; in the test on Jurkat cells [1] (TMP 50 μM, 6 hours) it was 1180; in the test with Jurkat cells [1] (TMP 50 μM, 9 hours), 1466; with Jurkat cells [1] (TMP 50 μM, 24 hours), 3952. Besides, the “Off kinetics (CD40L surface expression, FACS)” value with Jurkat cells [1] (0 hours after wash) turned out to be 3952; with Jurkat cells [1] (3 hours after wash), 1631; in the test on Jurkat cells [1] (6 hours after wash), 1620; in the test on Jurkat cells [1] (9 hours after wash) it was 1037; in the test with Jurkat cells [1] (24 hours after wash) it was 1287. Besides, the “TMP dose response (percentage of CD40L positive cells)” value with T cells (CD4 and CD8) (CD4+, 0.5 μL virus OT-001671, TMP 0.001 μM) turned out to be 17.9%; in the test on T cells (CD4 and CD8) (CD4+, 0.5 μL virus OT-001671, TMP 0.01 μM), 18.8%; in the test on T cells (CD4 and CD8) (CD4+, 0.5 μL virus OT-001671, TMP 0.1 μM), 20.4%; in the test on T cells (CD4 and CD8) (CD4+, 0.5 μL virus OT-001671, TMP 1 μM), 20.3%; with T cells (CD4 and CD8) (CD4+, 0.5 μL virus OT-001671, TMP 10 μM) it was 27.5%; in the test with T cells (CD4 and CD8) (CD4+, 2 μL virus OT-001671, TMP 0.001 μM) it was 11.8%. The “TMP dose response (percentage of CD40L positive cells)” value was 12.2% in the test on T cells (CD4 and CD8) (CD4+, 2 μL virus OT-001671, TMP 0.01 μM); 14.9% in the test on T cells (CD4 and CD8) (CD4+, 2 μL virus OT-001671, TMP 0.1 μM); 17.6% in the test on T cells (CD4 and CD8) (CD4+, 2 μL virus OT-001671, TMP 1 μM); 30% in the test on T cells (CD4 and CD8) (CD4+, 2 μL virus OT-001671, TMP 10 μM); 4.74% with T cells (CD4 and CD8) (CD4+, 10 μL virus OT-001671, TMP 0.001 μM); 6.79% with T cells (CD4 and CD8) (CD4+, 10 μL virus OT-001671, TMP 0.01 μM). Moreover, the “TMP dose response (percentage of CD40L positive cells)” value in the test on T cells (CD4 and CD8) (CD4+, 10 μL virus OT-001671, TMP 0.1 μM) turned out to be 7.65%; with T cells (CD4 and CD8) (CD4+, 10 μL virus OT-001671, TMP 1 μM), 17.2%; in the test on T cells (CD4 and CD8) (CD4+, 10 μL virus OT-001671, TMP 10 μM), 43.7%; with T cells (CD4 and CD8) (CD8+, 0.5 μL virus OT-001671, TMP 0.001 μM) it was 0.59%; in the test on T cells (CD4 and CD8) (CD8+, 0.5 μL virus OT-001671, TMP 0.01 μM) it was 0.56%; with T cells (CD4 and CD8) (CD8+, 0.5 μL virus OT-001671, TMP 0.1 μM), 0.45%. Moreover, the “TMP dose response (percentage of CD40L positive cells)” value in the test on T cells (CD4 and CD8) (CD8+, 0.5 μL virus OT-001671, TMP 1 μM) is listed as 0.43%; in the test on T cells (CD4 and CD8) (CD8+, 0.5 μL virus OT-001671, TMP 10 μM) it was 2.44%; with T cells (CD4 and CD8) (CD8+, 2 μL virus OT-001671, TMP 0.001 μM), 0.6%; with T cells (CD4 and CD8) (CD8+, 2 μL virus OT-001671, TMP 0.01 μM), 0.59%; with T cells (CD4 and CD8) (CD8+, 2 μL virus OT-001671, TMP 0.1 μM), 0.88%; in the test with T cells (CD4 and CD8) (CD8+, 2 μL virus OT-001671, TMP 1 μM), 1.29%. The “TMP dose response (percentage of CD40L positive cells)” value is 5.57% with T cells (CD4 and CD8) (CD8+, 2 μL virus OT-001671, TMP 10 μM); 1.18% in the test with T cells (CD4 and CD8) (CD8+, 10 μL virus OT-001671, TMP 0.001 μM); 0.89% with T cells (CD4 and CD8) (CD8+, 10 μL virus OT-001671, TMP 0.01 μM); 0.95% in the test with T cells (CD4 and CD8) (CD8+, 10 μL virus OT-001671, TMP 0.1 μM); 2.87% in the test with T cells (CD4 and CD8) (CD8+, 10 μL virus OT-001671, TMP 1 μM); 12.4% in the test with T cells (CD4 and CD8) (CD8+, 10 μL virus OT-001671, TMP 10 μM).

B1: OT-001965: ER regulated CD40L construct with varied linker length (protein)
chain: MSLALSLTADQMVSALLDAEPPILYSEYDPTRPFSEASMMGLLTNLADRELVHMINWAKRVPGFVDLTLHDQVHLLECAWMEILMIGLVWRSMEHPGKLLFAPNLLLDRDQGKCVEGGVEIFDMLLATSSRFRMMNLQGEEFVCLKSIILLNSGVYTFLSSTLKSLEEKDHIHRVLDKITDTLIHLMAKAGLTLQQQHQRLAQLLLILSHIRHMSNKRMEHLYSMKCKNVVPLSDLLLEMLDAHRLGSGMIETYNQTSPRSAATGLPISMKIFMYLLTVFLITQMIGSALFAVYLHRRLDKIEDERNLHEDFVFMKTIQRCNTGERSLSLLNCEEIKSQFEGFVKDIMLNKEETKKENSFEMQKGDQNPQIAAHVISEASSKTTSVLQWAEKGYYTMSNNLVTLENGKQLTVKRQGLYYIYAQVTFCSNREASSQAPFIASLCLKSPGRFERILLRAANTHSSAKPCGQQSIHLGGVFELQPGASVFVNVTDPSQVSHGTGFTSFGLLKL
Consider B1, for which the “Percent of Jurkat cells expressing CD40L” value in the test on Jurkat cells [2] (1 μM Bazedoxifene) came out at 27%; with Jurkat cells [2] (DMSO), 3%. Besides, the SR in the test on Jurkat cells [2] (1 μM Bazedoxifene versus DMSO, % CD40L positive Jurkat cells) came out at 9.
